ChEMBL document CHEMBL4130348, “Structure-activity relationship investigation for benzonaphthyridinone derivatives as novel potent Bruton's tyrosine kinase (BTK) irreversible inhibitors” (Eur J Med Chem, 2017)

How the values were obtained:
[1] = molecular target: Tyrosine-protein kinase Blk (Homo sapiens, UniProt P51451); assay: Inhibition of recombinant full length His-tagged human BLK expressed in baculovirus expression system using poly (4:1 Glu, Tyr) as substrate preincubated for 1 hr followed by substrate addition measured after 1 hr by ADP-glo assay
[2] = molecular target: T1, Tyrosine-protein kinase JAK3 (Homo sapiens, UniProt P52333); assay: Inhibition of recombinant GST-tagged human JAK3 expressed in baculovirus expression system using poly (4:1 Glu, Tyr) as substrate preincubated for 1 hr followed by substrate addition measured after 1 hr by ADP-glo assay
T1 sequence (P52333 whole entry): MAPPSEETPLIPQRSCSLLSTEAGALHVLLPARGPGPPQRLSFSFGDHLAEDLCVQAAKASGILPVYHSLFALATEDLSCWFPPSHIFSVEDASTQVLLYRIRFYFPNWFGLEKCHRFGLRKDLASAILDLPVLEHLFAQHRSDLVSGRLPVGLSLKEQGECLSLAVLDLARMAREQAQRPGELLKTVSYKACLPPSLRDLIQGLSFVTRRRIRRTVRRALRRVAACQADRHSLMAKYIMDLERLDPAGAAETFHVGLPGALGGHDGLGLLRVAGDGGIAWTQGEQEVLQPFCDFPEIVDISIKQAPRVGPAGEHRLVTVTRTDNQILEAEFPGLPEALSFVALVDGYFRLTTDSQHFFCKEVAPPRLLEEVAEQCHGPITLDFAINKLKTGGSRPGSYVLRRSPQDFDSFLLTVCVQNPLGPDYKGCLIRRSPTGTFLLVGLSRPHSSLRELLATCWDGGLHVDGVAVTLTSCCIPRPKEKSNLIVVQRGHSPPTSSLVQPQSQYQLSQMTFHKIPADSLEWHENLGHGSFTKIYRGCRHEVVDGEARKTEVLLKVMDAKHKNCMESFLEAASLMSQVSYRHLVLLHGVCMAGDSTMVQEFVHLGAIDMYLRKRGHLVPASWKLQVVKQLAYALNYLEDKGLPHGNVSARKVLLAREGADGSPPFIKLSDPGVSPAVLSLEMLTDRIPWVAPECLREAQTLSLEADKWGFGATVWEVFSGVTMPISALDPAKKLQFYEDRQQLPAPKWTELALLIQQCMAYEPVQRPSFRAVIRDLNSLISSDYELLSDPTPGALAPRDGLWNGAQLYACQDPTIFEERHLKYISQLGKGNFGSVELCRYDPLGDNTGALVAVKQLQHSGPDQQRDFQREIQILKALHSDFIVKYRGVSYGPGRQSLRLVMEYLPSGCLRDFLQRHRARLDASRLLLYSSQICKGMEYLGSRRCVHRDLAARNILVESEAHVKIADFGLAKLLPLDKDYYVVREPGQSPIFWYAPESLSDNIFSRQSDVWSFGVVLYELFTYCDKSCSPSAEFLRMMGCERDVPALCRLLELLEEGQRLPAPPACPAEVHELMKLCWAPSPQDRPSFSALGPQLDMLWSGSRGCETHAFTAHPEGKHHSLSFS

NAMALVA = assay: Antiproliferative activity against human NAMALWA cells after 72 hrs by CellTiter-Glo assay; type: functional
NCI-H460 = assay: Antiproliferative activity against human NCI-H460 cells after 72 hrs by CellTiter-Glo assay; type: functional; conditions: NCI-H460, 72 h
A-431 = assay: Antiproliferative activity against human A431 cells after 72 hrs by CellTiter-Glo assay; type: functional; conditions: A-431, 72 h
Z-138 = assay: Antiproliferative activity against human Z138 cells after 72 hrs by CellTiter-Glo assay; type: functional; conditions: Z-138, 72 h
[3] = molecular target: Epidermal growth factor receptor (Homo sapiens) (UniProt P00533); assay: Inhibition of TEL-fused EGFR (unknown origin) expressed in mouse BA/F3 cells after 72 hrs by CellTiter-Glo assay; type: cell-based
K562 = assay: Antiproliferative activity against human K562 cells after 72 hrs by CellTiter-Glo assay; type: functional; conditions: K562, 72 h
DU-145 = assay: Antiproliferative activity against human DU145 cells after 72 hrs by CellTiter-Glo assay; type: functional; conditions: DU-145, 72 h
[4] = Antiproliferative activity against mouse BA/F3 cells after 72 hrs by CellTiter-Glo assay; type: cell-based, BaF3
U-937 = assay: Antiproliferative activity against human U937 cells after 72 hrs by CellTiter-Glo assay; type: functional; conditions: U-937, 72 h
HEL = assay: Antiproliferative activity against human HEL cells after 72 hrs by CellTiter-Glo assay; type: functional
MOLM-14 = assay: Antiproliferative activity against human MOLM14 cells after 72 hrs by CellTiter-Glo assay; type: functional; conditions: MOLM-14, 72 h
[5] = molecular target: Tyrosine-protein kinase JAK1 (Homo sapiens) (UniProt P23458); assay: Inhibition of TEL-fused JAK1 (unknown origin) expressed in mouse BA/F3 cells after 72 hrs by CellTiter-Glo assay; type: cell-based
NOMO-1 = assay: Antiproliferative activity against human NOMO1 cells after 72 hrs by CellTiter-Glo assay; type: functional; conditions: NOMO-1, 72 h
HL-60 = assay: Antiproliferative activity against human HL60 cells after 72 hrs by CellTiter-Glo assay; type: functional; conditions: HL-60, 72 h
[6] = molecular target: Tyrosine-protein kinase JAK2 (Homo sapiens) (UniProt O60674); assay: Inhibition of TEL-fused JAK2 (unknown origin) expressed in mouse BA/F3 cells after 72 hrs by CellTiter-Glo assay; type: cell-based
[7] = Antiproliferative activity against human RV1 cells after 72 hrs by CellTiter-Glo assay; type: functional; conditions: RV-1, 72 h
Pfeiffer = assay: Antiproliferative activity against human Pfeiffer cells after 72 hrs by CellTiter-Glo assay; type: functional
SU-DHL-2 = assay: Antiproliferative activity against human SUDHL2 cells after 72 hrs by CellTiter-Glo assay; type: functional; conditions: SU-DHL-2, 72 h
Rec1 = assay: Antiproliferative activity against human Rec1 cells after 72 hrs by CellTiter-Glo assay; type: functional; conditions: Rec1, 72 h
NALM-6 = assay: Antiproliferative activity against human NALM6 cells after 72 hrs by CellTiter-Glo assay; type: functional; conditions: NALM-6, 72 h
LNCaP C4-2 = assay: Antiproliferative activity against human C4-2 cells after 72 hrs by CellTiter-Glo assay; type: functional; conditions: LNCaP C4-2, 72 h
HCT-116 = assay: Antiproliferative activity against human HCT116 cells after 72 hrs by CellTiter-Glo assay; type: functional; conditions: HCT-116, 72 h
[8] = Antiproliferative activity against human PF138 cells after 72 hrs by CellTiter-Glo assay; type: functional
NCI-H1975 = assay: Antiproliferative activity against human NCI-H1975 cells after 72 hrs by CellTiter-Glo assay; type: functional; conditions: NCI-H1975, 72 h
[9] = Antiproliferative activity against human MOLM16 cells after 72 hrs by CellTiter-Glo assay; type: functional; conditions: MOLM16, 72 h
HeLa = assay: Antiproliferative activity against human HeLa cells after 72 hrs by CellTiter-Glo assay; type: functional
MOLM-13 = assay: Antiproliferative activity against human MOLM13 cells after 72 hrs by CellTiter-Glo assay; type: functional; conditions: MOLM-13, 72 h
OCI-AML-3 = assay: Antiproliferative activity against human OCI-AML3 cells after 72 hrs by CellTiter-Glo assay; type: functional; conditions: OCI-AML-3, 72 h
U2932 = assay: Antiproliferative activity against human U2932 cells after 72 hrs by CellTiter-Glo assay; type: functional; conditions: U2932, 72 h
NB-4 = assay: Antiproliferative activity against human NB4 cells after 72 hrs by CellTiter-Glo assay; type: functional; conditions: NB-4, 72 h
OCI-AML2 = assay: Antiproliferative activity against human OCI-AML2 cells after 72 hrs by CellTiter-Glo assay; type: functional; conditions: OCI-AML2, 72 h
CMK = assay: Antiproliferative activity against human CMK cells after 72 hrs by CellTiter-Glo assay; type: functional
A549 = assay: Antiproliferative activity against human A549 cells after 72 hrs by CellTiter-Glo assay; type: functional; conditions: A549, 72 h
[10] = system: Epidermal growth factor receptor (Homo sapiens), P00533 [L858R,T790M]; assay: Inhibition of TEL-fused EGFR T790M/L858R mutant (unknown origin) expressed in mouse BA/F3 cells after 72 hrs by CellTiter-Glo assay; type: cell-based
JVM-2 = assay: Antiproliferative activity against human JVM2 cells after 72 hrs by CellTiter-Glo assay; type: functional; conditions: JVM-2, 72 h
NCI-H358 = assay: Antiproliferative activity against human NCI-H358 cells after 72 hrs by CellTiter-Glo assay; type: functional; conditions: NCI-H358, 72 h

Chain of Tyrosine-protein kinase Blk (P51451 whole entry): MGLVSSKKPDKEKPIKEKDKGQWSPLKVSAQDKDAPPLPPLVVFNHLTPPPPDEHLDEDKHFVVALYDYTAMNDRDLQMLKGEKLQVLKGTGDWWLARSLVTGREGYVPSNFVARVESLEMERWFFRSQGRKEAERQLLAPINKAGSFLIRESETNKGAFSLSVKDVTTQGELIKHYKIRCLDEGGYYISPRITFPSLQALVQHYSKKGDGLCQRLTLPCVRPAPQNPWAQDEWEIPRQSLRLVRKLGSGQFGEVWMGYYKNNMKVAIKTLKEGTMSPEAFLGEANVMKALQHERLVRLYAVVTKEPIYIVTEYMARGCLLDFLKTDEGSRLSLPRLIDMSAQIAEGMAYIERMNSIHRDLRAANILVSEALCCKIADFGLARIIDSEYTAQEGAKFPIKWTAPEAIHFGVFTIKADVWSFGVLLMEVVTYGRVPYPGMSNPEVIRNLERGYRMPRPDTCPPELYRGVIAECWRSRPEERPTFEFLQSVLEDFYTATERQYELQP
Chain of Tyrosine-protein kinase JAK1 (Homo sapiens) (P23458 whole entry, the tested form may be a part): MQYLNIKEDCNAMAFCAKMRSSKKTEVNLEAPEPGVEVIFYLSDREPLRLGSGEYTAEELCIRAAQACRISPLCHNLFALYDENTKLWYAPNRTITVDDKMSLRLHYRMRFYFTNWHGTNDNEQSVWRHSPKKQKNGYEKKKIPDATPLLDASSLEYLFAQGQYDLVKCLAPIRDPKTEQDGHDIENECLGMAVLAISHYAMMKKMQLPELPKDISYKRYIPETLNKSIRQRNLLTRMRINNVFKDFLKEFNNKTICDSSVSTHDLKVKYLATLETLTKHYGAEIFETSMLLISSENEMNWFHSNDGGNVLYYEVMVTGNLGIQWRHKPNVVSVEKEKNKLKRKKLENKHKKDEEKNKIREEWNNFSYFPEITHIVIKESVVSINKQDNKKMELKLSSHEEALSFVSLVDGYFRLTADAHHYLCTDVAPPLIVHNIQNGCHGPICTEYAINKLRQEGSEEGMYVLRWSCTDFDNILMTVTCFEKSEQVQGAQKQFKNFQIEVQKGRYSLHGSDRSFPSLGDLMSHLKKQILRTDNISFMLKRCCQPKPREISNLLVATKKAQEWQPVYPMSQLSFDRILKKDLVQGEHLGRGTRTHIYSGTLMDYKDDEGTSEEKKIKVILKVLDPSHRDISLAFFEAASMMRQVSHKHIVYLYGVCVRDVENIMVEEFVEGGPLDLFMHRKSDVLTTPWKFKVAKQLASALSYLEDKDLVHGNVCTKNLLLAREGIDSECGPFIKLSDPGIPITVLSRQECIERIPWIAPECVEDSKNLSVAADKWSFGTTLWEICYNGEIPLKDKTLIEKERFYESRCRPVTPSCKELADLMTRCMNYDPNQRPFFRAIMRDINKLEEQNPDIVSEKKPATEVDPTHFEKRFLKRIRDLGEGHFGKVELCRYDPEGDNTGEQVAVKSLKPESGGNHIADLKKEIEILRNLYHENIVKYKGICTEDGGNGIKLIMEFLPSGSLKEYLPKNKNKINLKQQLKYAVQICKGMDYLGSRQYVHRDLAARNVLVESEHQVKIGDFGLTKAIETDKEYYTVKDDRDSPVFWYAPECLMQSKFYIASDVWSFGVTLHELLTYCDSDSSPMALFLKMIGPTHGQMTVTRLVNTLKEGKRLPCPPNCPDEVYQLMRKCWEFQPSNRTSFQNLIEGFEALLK
Chain of Tyrosine-protein kinase JAK2 (Homo sapiens) (O60674 whole entry, the tested form may be a part): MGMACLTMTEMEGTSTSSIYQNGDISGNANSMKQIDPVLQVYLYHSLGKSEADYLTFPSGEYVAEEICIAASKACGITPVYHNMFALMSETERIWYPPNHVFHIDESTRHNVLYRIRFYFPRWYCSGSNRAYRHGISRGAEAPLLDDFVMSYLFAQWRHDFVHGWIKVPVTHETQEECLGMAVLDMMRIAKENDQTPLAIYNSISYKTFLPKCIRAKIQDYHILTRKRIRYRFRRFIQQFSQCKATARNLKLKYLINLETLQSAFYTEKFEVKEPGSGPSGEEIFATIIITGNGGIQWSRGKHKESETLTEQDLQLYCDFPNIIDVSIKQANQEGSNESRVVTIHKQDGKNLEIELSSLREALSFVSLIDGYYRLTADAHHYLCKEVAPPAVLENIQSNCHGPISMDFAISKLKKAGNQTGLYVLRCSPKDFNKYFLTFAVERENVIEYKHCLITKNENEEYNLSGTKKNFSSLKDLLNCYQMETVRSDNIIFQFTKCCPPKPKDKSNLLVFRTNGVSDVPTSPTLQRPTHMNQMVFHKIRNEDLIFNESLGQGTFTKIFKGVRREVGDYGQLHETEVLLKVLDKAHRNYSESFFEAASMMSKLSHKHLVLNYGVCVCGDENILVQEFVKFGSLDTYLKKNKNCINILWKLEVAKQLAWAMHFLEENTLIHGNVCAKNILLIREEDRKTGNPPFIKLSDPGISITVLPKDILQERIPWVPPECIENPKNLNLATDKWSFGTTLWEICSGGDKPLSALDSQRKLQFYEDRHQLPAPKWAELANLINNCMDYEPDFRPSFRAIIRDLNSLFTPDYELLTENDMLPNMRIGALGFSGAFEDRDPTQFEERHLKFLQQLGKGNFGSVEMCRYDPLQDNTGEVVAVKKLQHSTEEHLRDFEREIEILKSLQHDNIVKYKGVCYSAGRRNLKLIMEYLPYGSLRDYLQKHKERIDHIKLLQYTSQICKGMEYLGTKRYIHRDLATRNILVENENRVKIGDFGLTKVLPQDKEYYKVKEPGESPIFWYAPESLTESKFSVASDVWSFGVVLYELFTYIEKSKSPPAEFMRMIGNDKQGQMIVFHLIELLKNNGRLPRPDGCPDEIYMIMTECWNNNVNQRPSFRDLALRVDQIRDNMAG
Chain of Epidermal growth factor receptor (Homo sapiens) (P00533 whole entry, the tested form may be a part): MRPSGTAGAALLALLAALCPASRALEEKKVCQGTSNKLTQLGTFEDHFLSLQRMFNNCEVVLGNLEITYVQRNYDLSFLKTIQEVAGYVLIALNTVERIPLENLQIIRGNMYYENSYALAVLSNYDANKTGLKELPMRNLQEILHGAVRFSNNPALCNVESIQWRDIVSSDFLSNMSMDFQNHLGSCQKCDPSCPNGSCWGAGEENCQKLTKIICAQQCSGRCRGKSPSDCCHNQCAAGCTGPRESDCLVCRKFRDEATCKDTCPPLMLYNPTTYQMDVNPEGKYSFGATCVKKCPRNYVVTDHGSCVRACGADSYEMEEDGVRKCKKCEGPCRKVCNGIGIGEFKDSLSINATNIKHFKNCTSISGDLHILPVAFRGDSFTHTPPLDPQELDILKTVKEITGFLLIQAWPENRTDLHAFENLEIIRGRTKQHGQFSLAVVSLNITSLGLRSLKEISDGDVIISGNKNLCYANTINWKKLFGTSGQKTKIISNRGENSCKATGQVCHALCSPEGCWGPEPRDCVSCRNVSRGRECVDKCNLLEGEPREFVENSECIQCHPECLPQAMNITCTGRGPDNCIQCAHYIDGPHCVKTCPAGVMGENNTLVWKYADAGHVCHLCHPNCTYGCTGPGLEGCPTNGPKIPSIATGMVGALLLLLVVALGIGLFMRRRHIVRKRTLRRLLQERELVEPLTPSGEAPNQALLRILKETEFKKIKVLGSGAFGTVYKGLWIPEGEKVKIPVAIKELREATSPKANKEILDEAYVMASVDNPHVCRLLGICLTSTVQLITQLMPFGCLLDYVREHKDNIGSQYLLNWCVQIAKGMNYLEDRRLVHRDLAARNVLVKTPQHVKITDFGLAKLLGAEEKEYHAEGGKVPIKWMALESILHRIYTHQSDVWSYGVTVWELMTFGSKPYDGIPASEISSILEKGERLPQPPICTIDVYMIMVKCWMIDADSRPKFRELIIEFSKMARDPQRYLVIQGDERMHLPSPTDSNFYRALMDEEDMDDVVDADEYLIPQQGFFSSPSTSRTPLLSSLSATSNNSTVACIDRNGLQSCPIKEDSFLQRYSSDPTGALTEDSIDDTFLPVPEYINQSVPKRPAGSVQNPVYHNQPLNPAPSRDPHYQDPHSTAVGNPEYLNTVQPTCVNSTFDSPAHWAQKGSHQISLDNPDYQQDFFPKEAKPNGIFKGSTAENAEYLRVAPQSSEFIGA

In the case of C=CC(=O)Nc1cc(-n2c(=O)ccc3cnc4ccc(/C=C/c5ccccc5)cc4c32)ccc1C, the IC50 [1] is reported as 0.607 µM and the IC50 [2] is reported as 5.58 µM.

Compound C=CC(=O)Nc1cccc(-n2c(=O)ccc3cnc4ccc(-c5ccc(N)nc5)cc4c32)c1 has an IC50 [1] of 0.336 µM and an IC50 [2] of 0.654 µM.

For C=CC(=O)Nc1cc(-n2c(=O)ccc3cnc4ccc(-c5ccc6c(c5)OCCO6)cc4c32)ccc1C, the IC50 [1] was 0.16 µM and the IC50 [2] was 0.192 µM.

In the case of C=CC(=O)Nc1cc(-n2c(=O)ccc3cnc4ccc(-c5ccccc5)cc4c32)ccc1C, the IC50 [2] is reported as 0.0253 µM.

For C=CC(=O)Nc1cc(-n2c(=O)ccc3cnc4ccc(-c5cnn(C)c5)cc4c32)ccc1C, the IC50 [1] was 0.339 µM and the IC50 [2] was 0.343 µM.

For C=CC(=O)Nc1cc(-n2c(=O)ccc3cnc4ccc(-c5ccc(N)nc5)cc4c32)ccc1C, the IC50 [1] was 0.177 µM and the IC50 [2] was 0.177 µM.

In the case of C=CC(=O)N1CCC[C@@H](n2nc(-c3ccc(Oc4ccccc4)cc3)c3c(N)ncnc32)C1 [IBRUTINIB], the GI50 (NAMALVA) is reported as 6 µM, the GI50 (NCI-H460) is reported as > 10 µM and the GI50 (A-431) is reported as > 10 µM. For the same compound, the GI50 (Z-138) was > 10 µM, the GI50 [3] was > 10 µM and the GI50 (K562) was > 10 µM. The GI50 (DU-145) was > 10 µM, the GI50 at 72 h [4] was > 10 µM and the GI50 (U-937) was 8.5 µM. For the same compound, the GI50 (HEL) was 4 µM, the GI50 (MOLM-14) was 1.8 µM and the GI50 [5] was 8.93 µM. For the same compound, the GI50 (NOMO-1) was > 10 µM, the GI50 (HL-60) was 3.5 µM and the GI50 [6] was 9.02 µM. The GI50 [7] was > 10 µM, the GI50 (Pfeiffer) was 8.4 µM and the GI50 (SU-DHL-2) was 2.2 µM. The GI50 (Rec1) was > 10 µM, the GI50 (NALM-6) was > 10 µM and the GI50 (LNCaP C4-2) was > 10 µM. For the same compound, the GI50 (HCT-116) was > 10 µM, the GI50 [8] was 8.2 µM and the GI50 (NCI-H1975) was 1.2 µM. The GI50 [9] was 4.4 µM, the GI50 (HeLa) was > 10 µM and the GI50 (MOLM-13) was 1.3 µM. For the same compound, the GI50 (OCI-AML-3) was > 10 µM, the GI50 (U2932) was 4 µM and the GI50 (NB-4) was 7.5 µM. For the same compound, the GI50 (OCI-AML2) was > 10 µM, the GI50 (CMK) was > 10 µM and the GI50 (A549) was > 10 µM. The GI50 [10] was 2.76 µM, the GI50 (JVM-2) was > 10 µM and the GI50 (NCI-H358) was > 10 µM.

C=CC(=O)Nc1cc(-n2c(=O)ccc3cnc4ccc(-c5ccsc5)cc4c32)ccc1C gave an IC50 [1] of 0.342 µM and an IC50 [2] of 0.0386 µM.

Compound C=CC(=O)Nc1cc(-n2c(=O)ccc3cnc4ccc(-c5cnc6ccccc6c5)cc4c32)ccc1C has an IC50 [1] of 0.295 µM and an IC50 [2] of 0.983 µM.
